Measured values: patent publication US20230146395A1, “Substituted Pyrimidines and Uses Thereof” (Verge Analytics, Inc., priority 2020, published 2023)

What follows are molecules tested against T1, Full length human recombinant PIKFYVE (Homo sapiens, UniProt Q9Y2I7) (assay: Inhibition of PIKfyve (microfluidic electrophoresis kinase assay, PI3P/PS substrate)). Conditions: 12 concentrations.
T1 construct: Full length human recombinant PIKFYVE; purchased Carna Biosciences (Kobe, Japan); host or cells: baculovirus expression system
T1 sequence (Q9Y2I7 whole entry): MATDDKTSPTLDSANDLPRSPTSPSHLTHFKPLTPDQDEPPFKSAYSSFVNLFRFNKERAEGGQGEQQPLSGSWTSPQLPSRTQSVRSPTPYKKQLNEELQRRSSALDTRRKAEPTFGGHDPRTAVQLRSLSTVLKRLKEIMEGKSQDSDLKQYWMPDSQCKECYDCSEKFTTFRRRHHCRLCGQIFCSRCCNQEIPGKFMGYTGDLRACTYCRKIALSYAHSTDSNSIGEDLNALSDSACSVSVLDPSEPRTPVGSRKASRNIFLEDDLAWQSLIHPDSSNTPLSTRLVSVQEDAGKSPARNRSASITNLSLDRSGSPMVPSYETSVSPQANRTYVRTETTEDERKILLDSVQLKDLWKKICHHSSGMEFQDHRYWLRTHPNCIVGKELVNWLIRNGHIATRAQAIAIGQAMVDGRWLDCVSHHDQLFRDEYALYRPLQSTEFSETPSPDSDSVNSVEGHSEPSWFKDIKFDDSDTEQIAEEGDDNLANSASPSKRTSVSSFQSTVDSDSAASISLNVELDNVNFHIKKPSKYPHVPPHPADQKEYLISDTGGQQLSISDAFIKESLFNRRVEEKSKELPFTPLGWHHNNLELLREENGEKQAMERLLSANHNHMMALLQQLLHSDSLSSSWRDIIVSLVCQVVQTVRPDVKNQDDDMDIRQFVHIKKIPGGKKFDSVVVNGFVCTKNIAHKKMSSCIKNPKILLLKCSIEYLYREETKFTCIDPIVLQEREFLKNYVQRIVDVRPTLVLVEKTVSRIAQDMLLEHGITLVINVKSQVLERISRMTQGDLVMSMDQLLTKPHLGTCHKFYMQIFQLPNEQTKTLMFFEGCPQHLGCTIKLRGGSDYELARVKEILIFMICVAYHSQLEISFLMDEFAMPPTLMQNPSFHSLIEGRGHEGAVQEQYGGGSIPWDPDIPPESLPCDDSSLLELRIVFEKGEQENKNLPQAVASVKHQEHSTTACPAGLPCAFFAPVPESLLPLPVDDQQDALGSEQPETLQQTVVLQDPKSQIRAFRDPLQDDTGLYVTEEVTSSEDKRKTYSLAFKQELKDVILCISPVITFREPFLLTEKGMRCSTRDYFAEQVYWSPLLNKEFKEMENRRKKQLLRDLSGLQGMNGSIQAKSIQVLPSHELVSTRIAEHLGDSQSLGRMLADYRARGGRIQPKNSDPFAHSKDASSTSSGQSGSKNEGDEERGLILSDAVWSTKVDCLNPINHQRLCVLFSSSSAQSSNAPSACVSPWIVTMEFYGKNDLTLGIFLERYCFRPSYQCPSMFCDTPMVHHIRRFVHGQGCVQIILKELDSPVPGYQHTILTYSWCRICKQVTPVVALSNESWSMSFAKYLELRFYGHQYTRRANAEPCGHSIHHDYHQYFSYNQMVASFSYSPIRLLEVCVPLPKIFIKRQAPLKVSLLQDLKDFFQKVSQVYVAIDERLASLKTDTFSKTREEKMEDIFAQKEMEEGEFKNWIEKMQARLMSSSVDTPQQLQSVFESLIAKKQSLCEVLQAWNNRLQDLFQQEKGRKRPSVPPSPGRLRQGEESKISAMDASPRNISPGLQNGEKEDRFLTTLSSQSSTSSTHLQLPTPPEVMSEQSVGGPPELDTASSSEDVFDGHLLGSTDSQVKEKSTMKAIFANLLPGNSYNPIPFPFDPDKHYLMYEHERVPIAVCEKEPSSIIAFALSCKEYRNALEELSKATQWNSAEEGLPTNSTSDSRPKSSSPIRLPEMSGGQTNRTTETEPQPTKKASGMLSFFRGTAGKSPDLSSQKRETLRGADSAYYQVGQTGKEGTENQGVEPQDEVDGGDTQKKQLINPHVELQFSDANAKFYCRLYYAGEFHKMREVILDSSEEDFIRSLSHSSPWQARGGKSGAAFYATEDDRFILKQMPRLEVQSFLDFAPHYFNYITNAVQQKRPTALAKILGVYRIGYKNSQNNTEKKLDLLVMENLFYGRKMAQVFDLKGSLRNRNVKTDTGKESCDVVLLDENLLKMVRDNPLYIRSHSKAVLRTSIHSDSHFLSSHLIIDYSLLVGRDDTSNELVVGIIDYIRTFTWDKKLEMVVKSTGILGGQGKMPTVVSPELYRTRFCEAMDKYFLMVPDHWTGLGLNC
Format: biochemical
Procedure, shortened: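 GST-tagged full-length human PIKFYVE (baculovirus; 2 nM) with fluorescent PI3P/PS (1 μM PI3P) and […] in pH 7.5 HEPES with Mg2+/Mn2+, 1% DMSO, 3 h at room temperature. PI(3,5)P product/substrate ratio read by microfluidic electrophoresis; 12-point % inhibition versus no-enzyme and DMSO controls.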

IC50 [µM]	Structure (SMILES)
0.0684	O=C(NC1CC1)c1cc2nc(-n3cc(-c4ccccc4)cn3)nc(N3CCOCC3)c2o1 [Compound 165, N-cyclopropyl-4-morpholino-2-(4-phenylpyrazol-1-yl)furo[3,2-d]pyrimidine-6-carboxamide]
0.22	O=C(NCC1CC1)c1cc2nc(-n3ccc(-c4ccccc4)n3)nc(N3CCOCC3)c2o1 [Compound 166, N-(cyclopropylmethyl)-4-morpholino-2-(3-phenylpyrazol-1-yl)furo[3,2-d]pyrimidine-6-carboxamide]
0.122	CN(C)CCCCNC(=O)c1cc2nc(-n3cc(-c4ccccc4)cn3)nc(N3CCOCC3)c2o1 [Compound 167]
0.0621	CN(C)CCCNC(=O)c1cc2nc(-n3cc(-c4ccccc4)cn3)nc(N3CCOCC3)c2o1 [Compound 168, N-(3-(dimethylamino)propyl)-4-morpholino-2-(4-phenyl-1H-pyrazol-1-yl)furo[3,2-d]pyrimidine-6-carboxamide]
0.0673	CN1CCCC(NC(=O)c2cc3nc(-n4cc(-c5ccccc5)cn4)nc(N4CCOCC4)c3o2)C1 (stereo not drawn) [Compound 169, N-(1-methyl-3-piperidyl)-4-morpholino-2-(4-phenylpyrazol-1-yl)furo[3,2-d]pyrimidine-6-carboxamide]
0.0455	CN1CCC(NC(=O)c2cc3nc(-n4cc(-c5ccccc5)cn4)nc(N4CCOCC4)c3o2)C1 (stereo not drawn) [Compound 170, N-(1-methylpyrrolidin-3-yl)-4-morpholino-2-(4-phenylpyrazol-1-yl)furo[3,2-d]pyrimidine-6-carboxamide]
0.0392	O=C(NC1CCOCC1)c1cc2nc(-n3cc(-c4ccccc4)cn3)nc(N3CCOCC3)c2o1 [Compound 171, 4-morpholino-2-(4-phenylpyrazol-1-yl)-N-tetrahydropyran-4-yl-furo[3,2-d]pyrimidine-6-carboxamide]
0.0378	O=C(NC1CCOC1)c1cc2nc(-n3cc(-c4ccccc4)cn3)nc(N3CCOCC3)c2o1 (stereo not drawn) [Compound 172, 4-morpholino-2-(4-phenylpyrazol-1-yl)-N-tetrahydrofuran-3-yl-furo[3,2-d]pyrimidine-6-carboxamide]
0.0006	Cc1cccc(-c2ccn(-c3nc(N4CCOCC4)c4oc(-c5cc(C)n[nH]5)cc4n3)n2)c1 [Compound 173, 6-(3-methyl-1H-pyrazol-5-yl)-4-morpholino-2-[3-(m-tolyl)pyrazol-1-yl]furo[3,2-d]pyrimidine]
0.531	O=C(NC1COC1)c1cc2nc(-n3cc(-c4ccccc4)cn3)nc(N3CCOCC3)c2o1 [Compound 174, 4-morpholino-N-(oxetan-3-yl)-2-(4-phenylpyrazol-1-yl)furo[3,2-d]pyrimidine-6-carboxamide]
4.01	O=C(NC1COC1)c1cc2nc(-n3ccc(-c4ccccc4)n3)nc(N3CCOCC3)c2o1 [Compound 175, 4-morpholino-N-(oxetan-3-yl)-2-(3-phenylpyrazol-1-yl)furo[3,2-d]pyrimidine-6-carboxamide]
0.0473	CN1CCCC(NC(=O)c2cc3nc(-n4cc(-c5ccccc5)cn4)nc(N4CCOCC4)c3o2)CC1 (stereo not drawn) [Compound 176, N-(1-methylazepan-4-yl)-4-morpholino-2-(4-phenylpyrazol-1-yl)furo[3,2-d]pyrimidine-6-carboxamide]
0.0413	Cc1cc(-c2cc3nc(-n4ccc(-c5ccccc5)n4)nc(N4CCOCC4)c3o2)nn1CCN(C)C [Compound 177, N,N-dimethyl-2-[5-methyl-3-[4-morpholino-2-(3-phenylpyrazol-1-yl)furo[3,2-d]pyrimidin-6-yl]pyrazol-1-yl]ethanamine]
0.0009	Cc1cccc(-c2ccn(-c3nc(N4CCOCC4)c4oc(-c5cc(C)n(CCN(C)C)n5)cc4n3)n2)c1 [Compound 178, N,N-dimethyl-2-[5-methyl-3-[4-morpholino-2-[3-(m-tolyl)pyrazol-1-yl]furo[3,2-d]pyrimidin-6-yl]pyrazol-1-yl]ethanamine]
≥ 10	Cc1c(-c2ccccn2)oc2c(N3CCOCC3)nc(-n3ccc(-c4ccccc4)n3)nc12 [Compound 179, 7-methyl-4-morpholino-2-(3-phenyl-1H-pyrazol-1-yl)-6-(pyridin-2-yl)furo[3,2-d]pyrimidine]
0.0556	Cc1c(-c2cccnc2)oc2c(N3CCOCC3)nc(-n3ccc(-c4ccccc4)n3)nc12 [Compound 180, 7-methyl-4-morpholino-2-(3-phenylpyrazol-1-yl)-6-(3-pyridyl)furo[3,2-d]pyrimidine]
0.0594	Cc1c(-c2ccncc2)oc2c(N3CCOCC3)nc(-n3ccc(-c4ccccc4)n3)nc12 [Compound 181, 7-methyl-4-morpholino-2-(3-phenylpyrazol-1-yl)-6-(4-pyridyl)furo[3,2-d]pyrimidine]
0.0842	Cc1cc(-c2oc3c(N4CCOCC4)nc(-n4ccc(-c5ccccc5)n4)nc3c2C)[nH]n1 [Compound 182, 7-methyl-6-(3-methyl-1H-pyrazol-5-yl)-4-morpholino-2-(3-phenylpyrazol-1-yl)furo[3,2-d]pyrimidine]
0.0118	Cc1cc(-c2cc3nc(-n4cc(-c5ccccc5)cn4)nc(N4CCOCC4)c3o2)nn1CCN(C)C [Compound 183, N,N-dimethyl-2-[5-methyl-3-[4-morpholino-2-(4-phenylpyrazol-1-yl)furo[3,2-d]pyrimidin-6-yl]pyrazol-1-yl]ethanamine]
1.43	Cc1c(C(=O)NC2CC2)oc2c(N3CCOCC3)nc(-n3ccc(-c4ccccc4)n3)nc12 [Compound 184, N-cyclopropyl-7-methyl-4-morpholino-2-(3-phenylpyrazol-1-yl)furo[3,2-d]pyrimidine-6-carboxamide]
0.0101	Clc1cccc(-c2ccn(-c3nc(N4CCOCC4)c4oc(-c5ccccn5)cc4n3)n2)c1 [Compound 185, 2-[3-(3-chlorophenyl)pyrazol-1-yl]-4-morpholino-6-(2-pyridyl)furo[3,2-d]pyrimidine]
0.006	Brc1cccc(-c2ccn(-c3nc(N4CCOCC4)c4oc(-c5ccccn5)cc4n3)n2)c1 [Compound 186, 2-[3-(3-bromophenyl)pyrazol-1-yl]-4-morpholino-6-(2-pyridyl)furo[3,2-d]pyrimidine]
2.39	Cc1cccc(-c2ccn(-c3nc(N4CCOCC4)c4oc(-c5ccccn5)cc4n3)n2)n1 [Compound 187, 2-[3-(6-methyl-2-pyridyl)pyrazol-1-yl]-4-morpholino-6-(2-pyridyl)furo[3,2-d]pyrimidine]
2.83	Cc1cc(-c2ccn(-c3nc(N4CCOCC4)c4oc(-c5ccccn5)cc4n3)n2)ccn1 [Compound 188, 2-[3-(2-methyl-4-pyridyl)pyrazol-1-yl]-4-morpholino-6-(2-pyridyl)furo[3,2-d]pyrimidine]
0.0008	Cc1cccc(-c2ccn(-c3nc(N4CCOCC4)c4oc(-c5ccn(C)n5)cc4n3)n2)c1 [Compound 189, 6-(1-methylpyrazol-3-yl)-4-morpholino-2-[3-(m-tolyl)pyrazol-1-yl]furo[3,2-d]pyrimidine]
0.0124	Cn1ccc(-c2cc3nc(-n4cc(-c5ccccc5)cn4)nc(N4CCOCC4)c3o2)n1 [Compound 190, 6-(1-methylpyrazol-3-yl)-4-morpholino-2-(4-phenylpyrazol-1-yl)furo[3,2-d]pyrimidine]
0.0519	Cn1ccc(-c2cc3nc(-n4ccc(-c5ccccc5)n4)nc(N4CCOCC4)c3o2)n1 [Compound 191, 6-(1-methylpyrazol-3-yl)-4-morpholino-2-(3-phenylpyrazol-1-yl)furo[3,2-d]pyrimidine]
